In patent US4409210A, “Antibiotic compound” (priority 1982, dated 1983):
Where two headings read alike, the source gives them in different places. *1 amine or outer side, *2 acyl side, *3 side chain or, on linkers, in order; H or OH if unused. Where a SMILES comes first, the peptide text is derived from it. Bridges are numbered along the chain shown (N, C = ends). [ ]: non-standard residue; d: D form. ξ: configuration not given here. X2 = CCCCCCCCCCCC(CC(=O)[*:1])O[*:2]; ξAsp(3ξ-OH) = NC(C(=O)O)C(O)C(=O)O; X1 = O=C(C1C(O)CCN1[*:1])[*:2]

Assays:
[1] = assay type: in vivo, mice; conditions: acute toxicity
Protocol: The acute toxicity of Bu-2517 was determined by intravenous and intramuscular routes. No death occurred up to a dose of 400 mg/kg (iv) or 1600 mg/kg (im).

[2] = tested on: Anaerobic gram-negative rod bacteria, such as Bacteroides and Fusobacterium species; test: MIC summary, anaerobic gram-negative rods; assay type: cell-based
anaerobic bacteria = test: MIC summary, anaerobic bacteria; assay type: cell-based
[3] = tested on: gram-positive rods and cocci (Clostridium, Peptostreptococcus, Propionibacterium acnes); assay type: cell-based; conditions: various species of Clostridium and Peptostreptococcus and strains of Propionibacterium acnes
S pneumoniae A20759 = assay type: in vivo, mice; conditions: Exp. Run No. C-1176, observed 5 days
[4] = tested on: aerobic gram-negative organisms; assay type: cell-based
Blood levels in mice = assay type: in vivo
Protocol: Blood levels in mice were determined following an intravenous or intramuscular administration of Bu-2517. Blood samples were collected from orbital sinuses and assayed by the paper disc-agar diffusion method using S. lutea PCI 1001 as the test organism. […] Bu-2517 was not absorbed when administered orally. T1 TABLE 7-Blood Levels in Mice? -Blood levels (mcg/ml)? -intravenous dose? intramuscular dose? -Time after? 10? 30? 10? 30? 100? -administration? mg/kg? mg/kg? mg/kg? mg/kg? mg/kg? -1 min 70 224 ? --? --? --? -5 41 162 ? --? --? --? -10 33 131 ? 11 22 --? -15 --? --? --? --? 45 -20 23 68 13 32 --? -30 18 73 14 48 45 -45 18 64 14 41 --? -1 hr 14 50 13 36 47 -1.5 7.9 32 11 35 --? -2 5.6 23 8.9 28 --? -3 3.1 14 5.3 18 55 -5 --? --? <2.0 ? 8.9 --? -7 --? --? --? 3.8 23 -10 --? --? --? --? 15 -24 --? --? --? --? <0.3 -Half life (hr.) 0.81 0.87 1.6 1.8 3.7 -AUC* (mcg.hr/ml) 39 163 ? 40 137 ? 460 ? -

CCCCCCCCCCCC1CC(=O)N2CCCC2C(=O)NC(CO)C(=O)N2CCCC2C(=O)NC(CCCNC(=N)N)C(=O)NC(C(O)C(=O)O)C(=O)NC(CO)C(=O)N2CCC(O)C2C(=O)NC(C(O)C(=O)O)C(=O)O1 (centres unmarked) [Bu-2517] (PSPR[ξAsp(3ξ-OH)]S[X1][ξAsp(3ξ-OH)]; linker N-C via X2; configuration not given here)
dose up to which no death occurred ([1]; im): 1600 mg/kg
intravenous dose at which mice died ([1]; intravenous): 800 mg/kg
dose up to which no death occurred ([1]; iv): 400 mg/kg
intravenous LD50 ([1]; mice, calculated): 560 mg/kg
susceptibility of anaerobic gram-negative rod bacteria [2]: generally resistant
antianaerobic activity, times more potent than amphomycin (anaerobic bacteria): 2-16 times
inhibition of anaerobic gram-positive rods and cocci tested [3]: inhibited all
PD50 (mg/kg, im) (S pneumoniae A20759): 1.9 mg/kg
activity against aerobic gram-negative organisms [4]: no activity
blood level after 7 hours (Blood levels in mice; intramuscular administration of 30 mg/kg): measurable blood level was still observed
AUC* (mcg.hr/ml), area under curve (Blood levels in mice; intramuscular dose 10 mg/kg): 40 µg·h/mL
Half life (Blood levels in mice; intramuscular dose 10 mg/kg): 1.6 h
Blood levels (Blood levels in mice; intramuscular dose 10 mg/kg, 10 min): 11000 ng/mL
Blood levels (Blood levels in mice; intramuscular dose 10 mg/kg, 20 min): 13000 ng/mL
Blood levels (Blood levels in mice; intramuscular dose 10 mg/kg, 30 min): 14000 ng/mL
Blood levels (Blood levels in mice; intramuscular dose 10 mg/kg, 45 min): 14000 ng/mL
Blood levels (Blood levels in mice; intramuscular dose 10 mg/kg, 1 hr): 13000 ng/mL
Blood levels (Blood levels in mice; intramuscular dose 10 mg/kg, 1.5 hr): 11000 ng/mL
Blood levels (Blood levels in mice; intramuscular dose 10 mg/kg, 2 hr): 8900 ng/mL
Blood levels (Blood levels in mice; intramuscular dose 10 mg/kg, 3 hr): 5300 ng/mL
Blood levels (Blood levels in mice; intramuscular dose 10 mg/kg, 5 hr): < 2000 ng/mL
AUC* (mcg.hr/ml), area under curve (Blood levels in mice; intramuscular dose 30 mg/kg): 137 µg·h/mL
Half life (Blood levels in mice; intramuscular dose 30 mg/kg): 1.8 h
Blood levels (Blood levels in mice; intramuscular dose 30 mg/kg, 10 min): 22000 ng/mL
Blood levels (Blood levels in mice; intramuscular dose 30 mg/kg, 20 min): 32000 ng/mL
Blood levels (Blood levels in mice; intramuscular dose 30 mg/kg, 30 min): 48000 ng/mL
Blood levels (Blood levels in mice; intramuscular dose 30 mg/kg, 45 min): 41000 ng/mL
Blood levels (Blood levels in mice; intramuscular dose 30 mg/kg, 1 hr): 36000 ng/mL
Blood levels (Blood levels in mice; intramuscular dose 30 mg/kg, 1.5 hr): 35000 ng/mL
Blood levels (Blood levels in mice; intramuscular dose 30 mg/kg, 2 hr): 28000 ng/mL
Blood levels (Blood levels in mice; intramuscular dose 30 mg/kg, 3 hr): 18000 ng/mL
Blood levels (Blood levels in mice; intramuscular dose 30 mg/kg, 5 hr): 8900 ng/mL
Blood levels (Blood levels in mice; intramuscular dose 30 mg/kg, 7 hr): 3800 ng/mL
AUC* (mcg.hr/ml), area under curve (Blood levels in mice; intramuscular dose 100 mg/kg): 460 µg·h/mL
Half life (Blood levels in mice; intramuscular dose 100 mg/kg): 3.7 h
Blood levels (Blood levels in mice; intramuscular dose 100 mg/kg, 15 min): 45000 ng/mL
Blood levels (Blood levels in mice; intramuscular dose 100 mg/kg, 30 min): 45000 ng/mL
Blood levels (Blood levels in mice; intramuscular dose 100 mg/kg, 1 hr): 47000 ng/mL
Blood levels (Blood levels in mice; intramuscular dose 100 mg/kg, 3 hr): 55000 ng/mL
Blood levels (Blood levels in mice; intramuscular dose 100 mg/kg, 7 hr): 23000 ng/mL
Blood levels (Blood levels in mice; intramuscular dose 100 mg/kg, 10 hr): 15000 ng/mL
Blood levels (Blood levels in mice; intramuscular dose 100 mg/kg, 24 hr): < 300 ng/mL
AUC* (mcg.hr/ml), area under curve (Blood levels in mice; intravenous dose 10 mg/kg): 39 µg·h/mL
Half life (Blood levels in mice; intravenous dose 10 mg/kg): 0.81 h
Blood levels (Blood levels in mice; intravenous dose 10 mg/kg, 1 min after administration): 70000 ng/mL
Blood levels (Blood levels in mice; intravenous dose 10 mg/kg, 5 min): 41000 ng/mL
Blood levels (Blood levels in mice; intravenous dose 10 mg/kg, 10 min): 33000 ng/mL
Blood levels (Blood levels in mice; intravenous dose 10 mg/kg, 20 min): 23000 ng/mL
Blood levels (Blood levels in mice; intravenous dose 10 mg/kg, 30 min): 18000 ng/mL
Blood levels (Blood levels in mice; intravenous dose 10 mg/kg, 45 min): 18000 ng/mL
Blood levels (Blood levels in mice; intravenous dose 10 mg/kg, 1 hr): 14000 ng/mL
Blood levels (Blood levels in mice; intravenous dose 10 mg/kg, 1.5 hr): 7900 ng/mL
Blood levels (Blood levels in mice; intravenous dose 10 mg/kg, 2 hr): 5600 ng/mL
Blood levels (Blood levels in mice; intravenous dose 10 mg/kg, 3 hr): 3100 ng/mL
AUC* (mcg.hr/ml), area under curve (Blood levels in mice; intravenous dose 30 mg/kg): 163 µg·h/mL
Half life (Blood levels in mice; intravenous dose 30 mg/kg): 0.87 h
Blood levels (Blood levels in mice; intravenous dose 30 mg/kg, 1 min after administration): 224000 ng/mL
Blood levels (Blood levels in mice; intravenous dose 30 mg/kg, 5 min): 162000 ng/mL
Blood levels (Blood levels in mice; intravenous dose 30 mg/kg, 10 min): 131000 ng/mL
Blood levels (Blood levels in mice; intravenous dose 30 mg/kg, 20 min): 68000 ng/mL
Blood levels (Blood levels in mice; intravenous dose 30 mg/kg, 30 min): 73000 ng/mL
Blood levels (Blood levels in mice; intravenous dose 30 mg/kg, 45 min): 64000 ng/mL
Blood levels (Blood levels in mice; intravenous dose 30 mg/kg, 1 hr): 50000 ng/mL
Blood levels (Blood levels in mice; intravenous dose 30 mg/kg, 1.5 hr): 32000 ng/mL
Blood levels (Blood levels in mice; intravenous dose 30 mg/kg, 2 hr): 23000 ng/mL
Blood levels (Blood levels in mice; intravenous dose 30 mg/kg, 3 hr): 14000 ng/mL
absorption, parenterally (Blood levels in mice; intravenous or intramuscular administration): well absorbed
absorption when administered orally (Blood levels in mice; oral): not absorbed
